Measurements taken from the supplement of paper PMC11061612.

Assays:
Test in all cases: Bliss excess, mean over the matrix (fraction); higher = more synergy
SH-4 (Melanoma) = system: SH-4 (Melanoma)
Method in brief: (§1)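 Cell lines grown in DMEM/F12 or RPMI with 10% FBS were plated in 1536-well plates and held 24 hours at 37°C, 5% CO2 before 72 hours of exposure to two-drug dose matrices, with DMSO typically at 0.2%. CellTiter-Glo 2.0 luminescence gave viability, which was converted to inhibition. Vehicle wells were set to 0 and blank wells to 1. Combination Emax is the second-highest inhibition in the matrix, and Bliss excess is the observed combination effect minus the expected EA + EB − EA·EB, where EA and EB are the single-agent effects.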

NCI-H2795 (Mesothelioma) = system: NCI-H2795 (Mesothelioma)
Method in brief: as §1

[1] = system: MDA-MB-468 (Breast Carcinoma)
Method in brief: as §1

NCI-H28 (Mesothelioma) = system: NCI-H28 (Mesothelioma)
Method in brief: as §1

[2] = system: OC-314 (Ovarian Carcinoma)
Method in brief: as §1

[3] = system: HO-1-u-1 (Oral Cavity Carcinoma)
Method in brief: as §1

[4] = system: LoVo (Colorectal Carcinoma)
Method in brief: as §1

[5] = system: SW1116 (Colorectal Carcinoma)
Method in brief: as §1

[6] = system: RT-112 (Bladder Carcinoma)
Method in brief: as §1

[7] = system: CAPAN-1 (Pancreatic Carcinoma)
Method in brief: as §1

NCI-H2461 (Mesothelioma) = system: NCI-H2461 (Mesothelioma)
Method in brief: as §1

[8] = system: LU-139 (Small Cell Lung Carcinoma)
Method in brief: as §1

[9] = system: NCI-H69 (Small Cell Lung Carcinoma)
Method in brief: as §1

[10] = system: RPMI-6666 (Non-Cancerous)
Method in brief: as §1

HMV-II (Melanoma) = system: HMV-II (Melanoma)
Method in brief: as §1

[11] = system: SU-DHL-6 (B-Cell Non-Hodgkin's Lymphoma)
Method in brief: as §1

Mewo (Melanoma) = system: Mewo (Melanoma)
Method in brief: as §1

[12] = system: CAL-54 (Kidney Carcinoma)
Method in brief: as §1

[13] = system: 8305C (Thyroid Gland Carcinoma)
Method in brief: as §1

[14] = system: Hs-633T (Other Solid Carcinomas)
Method in brief: as §1

| SMILES | Bliss excess (SH-4 (Melanoma)) | Bliss excess (NCI-H2795 (Mesothelioma)) | Bliss excess [1] | Bliss excess (NCI-H28 (Mesothelioma)) | Bliss excess [2] | Bliss excess [3] | Bliss excess [4] | Bliss excess [5] | Bliss excess [6] | Bliss excess [7] | Bliss excess (NCI-H2461 (Mesothelioma)) | Bliss excess [8] | Bliss excess [9] | Bliss excess [10] | Bliss excess (HMV-II (Melanoma)) | Bliss excess [11] | Bliss excess (Mewo (Melanoma)) | Bliss excess [12] | Bliss excess [13] | Bliss excess [14] |
| --- | --- | --- | --- | --- | --- | --- | --- | --- | --- | --- | --- | --- | --- | --- | --- | --- | --- | --- | --- | --- |
| C=CCn1c(=O)c2cnc(Nc3ccc(N4CCN(C)CC4)cc3)nc2n1-c1cccc(C(C)(C)O)n1 [AZD1775] + Nc1ccn([C@@H]2O[C@H](CO)[C@@H](O)C2(F)F)c(=O)n1 [Gemcitabine] (first compound max 1 µM, partner max 0.3 µM) | -0.0092 | -0.0549 | 0.0073 | -0.0576 | 0.0576 | -0.0446 | -0.0005 | -0.0077 | 0.148 | -0.0588 | -0.0446 | -0.0304 | -0.0754 | -0.0197 | -0.0355 | 0.0556 | -0.0623 | -0.0031 | -0.0524 | 0.0094 |
| CN(CCO)CC[C@H](CSc1ccccc1)Nc1ccc(S(=O)(=O)NC(=O)c2ccc(N3CCC([C@@H](O)c4ccccc4-c4ccc(Cl)cc4)CC3)cc2)cc1S(=O)(=O)C(F)(F)F [AZD4320] + CC(=O)O[C@H]1C(=O)[C@@]2(C)[C@H]([C@H](OC(=O)c3ccccc3)[C@]3(O)C[C@H](OC(=O)[C@H](O)[C@@H](NC(=O)c4ccccc4)c4ccccc4)C(C)=C1C3(C)C)[C@]1(OC(C)=O)CO[C@@H]1C[C@@H]2O [Paclitaxel] (first compound max 1 µM, 7x7, partner max 3 µM) | 0.0813 | 0.0621 | 0.0898 | 0.0394 | 0.0084 | 0.254 | -0.0406 | -0.101 | 0.0111 | 0.0823 | 0.0571 | 0.0242 | 0.0089 | 0.017 | 0.101 | 0.0083 | 0.0548 | -0.0202 | 0.0435 | 0.0124 |
| CN(CCO)CC[C@H](CSc1ccccc1)Nc1ccc(S(=O)(=O)NC(=O)c2ccc(N3CCC([C@@H](O)c4ccccc4-c4ccc(Cl)cc4)CC3)cc2)cc1S(=O)(=O)C(F)(F)F [AZD4320] + CS(=O)(=O)CCNCc1ccc(-c2ccc3ncnc(Nc4ccc(OCc5cccc(F)c5)c(Cl)c4)c3c2)o1 [Lapatinib] (first compound max 1 µM, 7x7, partner max 10 µM) | -0.0411 | 0.0148 | -0.0457 | 0.0075 | 0.0535 | 0.0591 | -0.0216 | 0.0117 | 0.0152 | -0.021 | 0.0115 | 0.0054 | 0.0363 | -0.0208 | -0.0663 | 0.0749 | -0.0386 | 0.0171 | -0.0526 | -0.0023 |
| CN(CCO)CC[C@H](CSc1ccccc1)Nc1ccc(S(=O)(=O)NC(=O)c2ccc(N3CCC([C@@H](O)c4ccccc4-c4ccc(Cl)cc4)CC3)cc2)cc1S(=O)(=O)C(F)(F)F [AZD4320] + C[C@@H](Nc1cc(F)cc(F)c1)c1cc(C(=O)N(C)C)cc2c(=O)cc(N3CCOCC3)oc12 [AZD8186] (first compound max 1 µM, 7x7, partner max 3 µM) | -0.0042 | 0.0426 | 0.0195 | 0.0474 | 0.0075 | -0.0242 | 0.0355 | 0.0353 | 0.0735 | -0.0107 | -0.0052 | -0.0107 | -0.0208 | 0.0298 | -0.0397 | 0.0068 | 0.0471 | 0.0533 | 0.0676 | 0.0082 |
| CN(CCO)CC[C@H](CSc1ccccc1)Nc1ccc(S(=O)(=O)NC(=O)c2ccc(N3CCC([C@@H](O)c4ccccc4-c4ccc(Cl)cc4)CC3)cc2)cc1S(=O)(=O)C(F)(F)F [AZD4320] + Nc1ccn([C@@H]2O[C@H](CO)[C@@H](O)C2(F)F)c(=O)n1 [Gemcitabine] (first compound max 1 µM, 7x7, partner max 0.3 µM) | 0.0224 | -0.0094 | -0.0034 | 0.0018 | 0.0434 | 0.0383 | -0.0476 | -0.0292 | -0.0057 | 0.0166 | 0.0285 | 0.0388 | -0.0064 | -0.0051 | -0.0109 | -0.0131 | 0.0099 | -0.0034 | 0.072 | 0.0434 |
| Cc1c2c(nn1C)CSCc1cc(n(C)n1)CSc1cc(c3ccccc3c1)OCCCc1c(C(=O)O)n(C)c3c-2c(Cl)ccc13 [AZD5991] + CC(=O)O[C@H]1C(=O)[C@@]2(C)[C@H]([C@H](OC(=O)c3ccccc3)[C@]3(O)C[C@H](OC(=O)[C@H](O)[C@@H](NC(=O)c4ccccc4)c4ccccc4)C(C)=C1C3(C)C)[C@]1(OC(C)=O)CO[C@@H]1C[C@@H]2O [Paclitaxel] (first compound max 1 µM, 7x7, partner max 3 µM) | -0.0331 | 0.044 | -0.051 | -0.0549 | -0.0078 | 0.214 | -0.122 | -0.0379 | 0.0162 | -0.0006 | -0.0417 | -0.0361 | -0.0504 | -0.0139 | 0.0547 | 0.0125 | 0.0103 | -0.0639 | -0.0118 | 0.005 |
